Data: PMC3983388 (Journal of Medicinal Chemistry, 2014)
Values after ≈ are worked out from the molar mass of the structure shown.

Experiments:
[1] = physchem
[2] = in vivo, po; cited from earlier work
[3] = pH 6.8, aqueous solubility pH 6.8

SMILES	solubility [1, 3]	solubility ([1]; pH 1, aqueous solubility pH 1.0)	serum levels [2]
Cc1ccnc(NC(c2ccc([N+](=O)[O-])cc2)c2ccc3cccnc3c2O)c1 (centres unmarked) [Compound 34]	0.0741 µM (≈ 0.0286 µg/mL)		
Cc1ccnc(NC(c2ccc([N+](=O)[O-])cc2)c2ccc3ccc(C)nc3c2O)c1 (centres unmarked) [Compound 35]	0.0659 µM (≈ 0.0264 µg/mL)		
COc1ccc(C(Nc2ccccn2)c2ccc3cccnc3c2O)cc1 (centres unmarked) [Compound 36]	0.0053 µM (≈ 0.00189 µg/mL)		
COc1ccc(C(Nc2ccccn2)c2ccc3ccc(C)nc3c2O)cc1 (centres unmarked) [Compound 37]	0.0338 µM (≈ 0.0126 µg/mL)		
Oc1c(CNc2ccccn2)ccc2cccnc12 [Compound 56, 7-(((Pyridin-2-yl)amino)methyl)quinolin-8-ol]	0.111 µM (≈ 0.0279 µg/mL)		
Oc1c(C(Nc2ccccn2)c2ccccc2)ccc2cccnc12 (centres unmarked) [Compound 57, 7-(Phenyl((pyridin-2-yl)amino)methyl)quinolin-8-ol]	0.078 µM (≈ 0.0255 µg/mL)	~1200 µM (≈ 393 µg/mL)	
Oc1c(I)cc(Cl)c2cccnc12 [Compound 58, 5-chloro-7-iodo-8-hydroxy-quinoline, reference compound]	< 0.001 µM		13 to 25 µM
Oc1c(Cl)cc(Cl)c2cccnc12 [Compound 60, 5,7-dichloro-8-hydroxy-quinoline, reference compound]	0.5 µM (≈ 0.107 µg/mL)		
Cc1ccc2c(Cl)cc(Cl)c(O)c2n1 [Compound 61, 5,7-dichloro-2-methyl-8-hydroxy-quinoline]	0.394 µM (≈ 0.0899 µg/mL)		
